Assay results from ChEMBL document CHEMBL5223112, “Design, synthesis, and structure-activity relationship of novel RIPK2 inhibitors” (Bioorg Med Chem Lett, 2022).

Legend:
[1] = target: Receptor-interacting serine/threonine-protein kinase 2 (Homo sapiens, UniProt O43353); assay: Binding affinity to RIPK2 (unknown origin) assessed as dissociation constant by kinomescan assay
[2] = Metabolic stability in rat liver microsomes assessed as half life; assay type: ADME
CYP3A4 [3] = target: T1, CYP3A4 (Homo sapiens, UniProt P08684); assay: Inhibition of CYP3A4 (unknown origin) at 10 uM using testosterone as substrate relative to control; assay type: ADME; details: probe testosterone
T1 sequence (P08684 whole entry): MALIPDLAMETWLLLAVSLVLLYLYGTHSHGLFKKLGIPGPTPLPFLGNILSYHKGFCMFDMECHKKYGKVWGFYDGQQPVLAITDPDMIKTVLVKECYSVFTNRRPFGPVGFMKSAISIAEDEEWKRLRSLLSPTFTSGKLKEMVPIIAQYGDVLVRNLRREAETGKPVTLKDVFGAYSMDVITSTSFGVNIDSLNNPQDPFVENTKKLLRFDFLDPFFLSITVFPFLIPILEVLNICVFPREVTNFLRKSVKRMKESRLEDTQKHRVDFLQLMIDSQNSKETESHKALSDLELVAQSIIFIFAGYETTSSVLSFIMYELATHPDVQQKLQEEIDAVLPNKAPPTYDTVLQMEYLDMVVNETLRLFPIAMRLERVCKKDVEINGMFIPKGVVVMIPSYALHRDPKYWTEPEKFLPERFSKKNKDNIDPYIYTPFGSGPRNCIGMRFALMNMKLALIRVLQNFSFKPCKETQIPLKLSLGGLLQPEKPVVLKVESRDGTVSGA

CYP2C19 = CYP2C19 (Homo sapiens, UniProt P33261); assay: Inhibition of CYP2C19 (unknown origin) at 10 uM relative to control; assay type: ADME
Sequence of CYP2C19 (P33261 whole entry): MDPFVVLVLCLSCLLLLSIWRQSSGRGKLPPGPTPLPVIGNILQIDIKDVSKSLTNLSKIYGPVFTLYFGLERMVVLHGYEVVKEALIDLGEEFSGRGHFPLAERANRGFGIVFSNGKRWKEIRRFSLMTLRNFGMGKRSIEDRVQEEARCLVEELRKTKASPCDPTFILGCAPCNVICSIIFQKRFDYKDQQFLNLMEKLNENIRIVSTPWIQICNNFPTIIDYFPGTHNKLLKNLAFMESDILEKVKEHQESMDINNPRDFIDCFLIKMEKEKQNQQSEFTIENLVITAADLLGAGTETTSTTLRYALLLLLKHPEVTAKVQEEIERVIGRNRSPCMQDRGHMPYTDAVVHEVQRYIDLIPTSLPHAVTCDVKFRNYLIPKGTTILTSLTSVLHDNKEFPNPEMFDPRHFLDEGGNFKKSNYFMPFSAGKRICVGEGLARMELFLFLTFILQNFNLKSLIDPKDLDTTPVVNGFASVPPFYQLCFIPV

CYP2C9 = CYP2C9 (Homo sapiens, UniProt P11712); assay: Inhibition of CYP2C9 (unknown origin) at 10 uM relative to control; assay type: ADME
Sequence of CYP2C9 (P11712 whole entry): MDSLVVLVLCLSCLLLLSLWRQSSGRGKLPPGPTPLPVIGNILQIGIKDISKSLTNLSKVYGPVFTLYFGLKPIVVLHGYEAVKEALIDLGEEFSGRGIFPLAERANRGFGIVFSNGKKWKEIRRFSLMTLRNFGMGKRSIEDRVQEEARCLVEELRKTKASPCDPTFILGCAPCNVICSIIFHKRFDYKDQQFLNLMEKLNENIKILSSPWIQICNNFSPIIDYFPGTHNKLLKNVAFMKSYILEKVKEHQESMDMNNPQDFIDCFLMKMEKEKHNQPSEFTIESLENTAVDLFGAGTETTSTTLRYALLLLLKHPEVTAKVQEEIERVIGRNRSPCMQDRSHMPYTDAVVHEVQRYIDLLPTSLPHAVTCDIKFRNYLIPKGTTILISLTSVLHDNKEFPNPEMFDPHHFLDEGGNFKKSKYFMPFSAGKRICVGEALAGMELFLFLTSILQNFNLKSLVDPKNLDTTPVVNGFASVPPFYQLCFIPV

[4] = Metabolic stability in dog liver microsomes assessed as half life; assay type: ADME, Canis lupus familiaris
[5] = Metabolic stability in rat liver microsomes assessed as intrinsic clearance; assay type: ADME; details: read-out: CLH
CYP3A4 [6] = target: T1, CYP3A4; assay: Inhibition of CYP3A4 (unknown origin) at 10 uM using midazolam as substrate relative to control; assay type: ADME; details: probe midazolam
[7] = Metabolic stability in monkey liver microsomes assessed as half life; assay type: ADME, Macaca mulatta; details: rhesus monkey
[8] = Metabolic stability in human liver microsomes assessed as half life; assay type: ADME
CYP2D6 = CYP2D6 (Homo sapiens, UniProt P10635); assay: Inhibition of CYP2D6 (unknown origin) at 10 uM relative to control; assay type: ADME
Sequence of CYP2D6 (P10635 whole entry): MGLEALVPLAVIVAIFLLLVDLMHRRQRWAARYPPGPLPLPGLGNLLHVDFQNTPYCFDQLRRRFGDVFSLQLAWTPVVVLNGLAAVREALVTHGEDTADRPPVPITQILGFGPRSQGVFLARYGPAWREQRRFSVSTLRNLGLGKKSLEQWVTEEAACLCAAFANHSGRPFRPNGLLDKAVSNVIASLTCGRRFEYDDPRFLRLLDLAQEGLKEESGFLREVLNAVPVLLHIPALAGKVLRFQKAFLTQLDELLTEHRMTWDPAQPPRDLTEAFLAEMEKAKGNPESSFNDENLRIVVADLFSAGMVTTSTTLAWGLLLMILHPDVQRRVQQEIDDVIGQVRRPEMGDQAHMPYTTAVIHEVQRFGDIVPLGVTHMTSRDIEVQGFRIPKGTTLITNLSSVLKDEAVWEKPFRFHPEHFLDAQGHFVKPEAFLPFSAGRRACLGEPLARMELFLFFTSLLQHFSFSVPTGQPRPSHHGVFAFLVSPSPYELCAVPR

[9] = Metabolic stability in mouse liver microsomes assessed as half life; assay type: ADME
[10] = Metabolic stability in monkey liver microsomes assessed as intrinsic clearance; assay type: ADME, Macaca mulatta; details: rhesus monkey, read-out: CLH
[11] = Metabolic stability in dog liver microsomes assessed as intrinsic clearance; assay type: ADME, Canis lupus familiaris; details: read-out: CLH
[12] = Metabolic stability in mouse liver microsomes assessed as intrinsic clearance; assay type: ADME; details: read-out: CLH
[13] = Metabolic stability in human liver microsomes assessed as intrinsic clearance; assay type: ADME; details: read-out: CLH
CYP1A2 = target: T2, CYP1A2 (Homo sapiens, UniProt P05177); assay: Inhibition of CYP1A2 (unknown origin) at 10 uM relative to control; assay type: ADME
T2 sequence (P05177 whole entry): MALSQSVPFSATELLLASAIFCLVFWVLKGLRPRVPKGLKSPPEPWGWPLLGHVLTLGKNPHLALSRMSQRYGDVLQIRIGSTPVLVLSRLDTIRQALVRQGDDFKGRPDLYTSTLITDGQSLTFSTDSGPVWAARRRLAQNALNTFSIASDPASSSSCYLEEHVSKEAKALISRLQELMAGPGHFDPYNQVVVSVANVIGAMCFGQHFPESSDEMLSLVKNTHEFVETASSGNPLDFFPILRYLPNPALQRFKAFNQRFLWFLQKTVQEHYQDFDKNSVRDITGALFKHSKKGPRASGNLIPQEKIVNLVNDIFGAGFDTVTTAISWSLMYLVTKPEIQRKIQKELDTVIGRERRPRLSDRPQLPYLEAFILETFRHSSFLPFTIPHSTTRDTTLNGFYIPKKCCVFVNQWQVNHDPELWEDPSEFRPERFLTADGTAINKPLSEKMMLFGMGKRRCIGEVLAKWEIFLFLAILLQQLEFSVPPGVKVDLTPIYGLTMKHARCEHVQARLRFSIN

[14] = target: T3, Receptor-interacting serine/threonine-protein kinase 1 (Homo sapiens, UniProt Q13546); assay: Binding affinity to RIPK1 (unknown origin) assessed as dissociation constant by kinomescan assay
T3 sequence (Q13546 whole entry): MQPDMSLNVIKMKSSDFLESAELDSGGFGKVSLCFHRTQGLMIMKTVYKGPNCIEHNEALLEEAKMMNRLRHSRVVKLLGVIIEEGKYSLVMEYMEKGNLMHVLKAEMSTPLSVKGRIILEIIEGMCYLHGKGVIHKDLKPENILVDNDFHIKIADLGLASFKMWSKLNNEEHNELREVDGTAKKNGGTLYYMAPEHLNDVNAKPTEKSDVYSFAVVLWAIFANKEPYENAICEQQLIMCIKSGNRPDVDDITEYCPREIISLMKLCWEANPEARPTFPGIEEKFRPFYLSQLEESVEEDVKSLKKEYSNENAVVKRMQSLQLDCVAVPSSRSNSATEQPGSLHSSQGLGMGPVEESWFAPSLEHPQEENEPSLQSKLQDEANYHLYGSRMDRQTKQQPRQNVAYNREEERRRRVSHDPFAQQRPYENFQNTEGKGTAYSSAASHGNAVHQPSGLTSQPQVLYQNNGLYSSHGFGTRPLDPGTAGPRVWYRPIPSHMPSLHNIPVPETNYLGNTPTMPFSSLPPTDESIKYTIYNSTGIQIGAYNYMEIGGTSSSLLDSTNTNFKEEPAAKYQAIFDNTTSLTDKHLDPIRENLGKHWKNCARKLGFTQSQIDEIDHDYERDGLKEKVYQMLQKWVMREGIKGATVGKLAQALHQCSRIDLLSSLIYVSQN

THP-1 = assay: Antiinflammatory activity in MDP-stimulated IL-8 production in human THP-1 cells pretreated for 2 hrs followed by MDP stimulation for 6 hrs; assay type: functional, cell-based
[15] = target: Receptor-interacting serine/threonine-protein kinase 3 (Homo sapiens, UniProt Q9Y572); assay: Binding affinity to RIPK3 (unknown origin) assessed as dissociation constant by kinomescan assay
Sequence of Receptor-interacting serine/threonine-protein kinase 3 (Q9Y572 whole entry): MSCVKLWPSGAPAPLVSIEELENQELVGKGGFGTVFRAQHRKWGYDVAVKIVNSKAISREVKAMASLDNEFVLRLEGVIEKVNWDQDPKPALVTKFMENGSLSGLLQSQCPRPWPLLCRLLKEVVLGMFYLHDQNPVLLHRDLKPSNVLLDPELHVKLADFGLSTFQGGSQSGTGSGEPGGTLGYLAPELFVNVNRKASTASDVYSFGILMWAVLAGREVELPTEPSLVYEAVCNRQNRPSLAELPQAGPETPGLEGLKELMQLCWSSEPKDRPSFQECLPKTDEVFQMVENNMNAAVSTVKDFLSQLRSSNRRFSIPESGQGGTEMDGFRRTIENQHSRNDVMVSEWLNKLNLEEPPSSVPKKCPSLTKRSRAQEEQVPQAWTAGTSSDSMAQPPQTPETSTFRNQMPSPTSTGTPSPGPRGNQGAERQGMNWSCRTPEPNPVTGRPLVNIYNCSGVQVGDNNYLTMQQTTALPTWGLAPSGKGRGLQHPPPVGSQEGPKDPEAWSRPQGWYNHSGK

[16] = target: Voltage-gated inwardly rectifying potassium channel KCNH2 (Homo sapiens, UniProt Q12809); assay: Inhibition of hERG; assay type: toxicity
Sequence of Voltage-gated inwardly rectifying potassium channel KCNH2 (Q12809 whole entry): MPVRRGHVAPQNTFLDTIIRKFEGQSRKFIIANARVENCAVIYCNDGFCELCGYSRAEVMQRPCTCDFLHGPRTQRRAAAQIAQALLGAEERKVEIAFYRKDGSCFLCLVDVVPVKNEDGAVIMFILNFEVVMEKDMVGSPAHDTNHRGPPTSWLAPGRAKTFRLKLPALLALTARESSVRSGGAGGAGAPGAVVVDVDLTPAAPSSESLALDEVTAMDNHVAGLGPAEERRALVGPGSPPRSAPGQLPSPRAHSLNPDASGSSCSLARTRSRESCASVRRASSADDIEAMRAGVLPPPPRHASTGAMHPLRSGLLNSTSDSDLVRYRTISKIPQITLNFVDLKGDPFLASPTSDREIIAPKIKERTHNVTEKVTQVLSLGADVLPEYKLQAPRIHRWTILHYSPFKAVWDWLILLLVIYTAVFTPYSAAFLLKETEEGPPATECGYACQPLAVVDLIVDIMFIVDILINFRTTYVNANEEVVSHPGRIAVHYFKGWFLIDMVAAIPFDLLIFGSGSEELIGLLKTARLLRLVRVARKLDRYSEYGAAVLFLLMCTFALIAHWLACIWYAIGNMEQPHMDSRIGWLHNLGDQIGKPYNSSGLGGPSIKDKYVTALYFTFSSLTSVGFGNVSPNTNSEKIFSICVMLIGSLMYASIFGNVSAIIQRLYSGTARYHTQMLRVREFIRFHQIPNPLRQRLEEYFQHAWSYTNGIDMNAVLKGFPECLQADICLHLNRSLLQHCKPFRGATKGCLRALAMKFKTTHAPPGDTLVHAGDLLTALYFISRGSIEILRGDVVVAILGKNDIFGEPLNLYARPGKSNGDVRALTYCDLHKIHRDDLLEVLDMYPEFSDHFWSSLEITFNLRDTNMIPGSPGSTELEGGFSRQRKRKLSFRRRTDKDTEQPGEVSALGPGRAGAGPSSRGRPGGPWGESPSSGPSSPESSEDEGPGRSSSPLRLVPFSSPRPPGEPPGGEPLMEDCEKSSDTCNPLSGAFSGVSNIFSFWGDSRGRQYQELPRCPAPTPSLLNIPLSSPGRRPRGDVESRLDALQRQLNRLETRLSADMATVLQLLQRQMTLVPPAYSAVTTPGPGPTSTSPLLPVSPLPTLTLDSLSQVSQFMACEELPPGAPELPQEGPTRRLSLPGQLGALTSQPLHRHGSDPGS

Sequence of Receptor-interacting serine/threonine-protein kinase 2 (O43353 whole entry): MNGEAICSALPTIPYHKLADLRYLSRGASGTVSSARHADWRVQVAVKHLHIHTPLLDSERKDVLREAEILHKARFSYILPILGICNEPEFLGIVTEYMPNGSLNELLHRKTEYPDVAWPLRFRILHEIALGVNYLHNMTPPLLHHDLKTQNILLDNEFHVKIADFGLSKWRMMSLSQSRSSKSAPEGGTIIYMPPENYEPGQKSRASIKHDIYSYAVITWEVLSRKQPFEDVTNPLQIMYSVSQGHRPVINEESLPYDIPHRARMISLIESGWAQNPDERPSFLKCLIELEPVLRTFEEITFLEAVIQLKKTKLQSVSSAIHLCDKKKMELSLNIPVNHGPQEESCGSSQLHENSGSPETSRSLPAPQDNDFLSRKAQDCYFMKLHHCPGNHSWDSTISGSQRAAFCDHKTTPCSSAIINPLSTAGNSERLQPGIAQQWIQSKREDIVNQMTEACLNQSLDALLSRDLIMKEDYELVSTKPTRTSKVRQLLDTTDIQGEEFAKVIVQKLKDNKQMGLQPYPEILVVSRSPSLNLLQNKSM

For `O=S1(=O)C=C(C2CC2)c2cc3ncnc(Nc4ccc5nc[nH]c5c4)c3cc21`, the Kd [1] was 0.325 µM.

`Cc1[nH]nc(Nc2ncnc3cc4c(cc23)S(=O)(=O)C=C4C2CC2)c1C` gave a Kd [1] of 0.01 µM.

`O=S1(=O)C=C(C2CC2)c2cc3ncnc(Nc4ccc5cc[nH]c5c4)c3cc21` showed a Kd [1] of 1.2 µM.

`O=S1(=O)C=C(C2CC2)c2cc3ncnc(Nc4ccc5scnc5c4)c3cc21` gave a half-life [2] of 61 min, an inhibition at 10 µM (CYP3A4 [3]) of 14.3% and an inhibition at 10 µM (CYP2C19) of 40.6%. It also gave an inhibition at 10 µM (CYP2C9) of 11.9%, a half-life [4] of 10.8 min and a CLint scaled [5] of 2.44 L/h/kg. For the same compound, the inhibition at 10 µM (CYP3A4 [6]) was 14.9%, the half-life [7] was 28.5 min and the half-life [8] was 64.3 min. It also gave an inhibition at 10 µM (CYP2D6) of -13.6%, a half-life [9] of 15.9 min and a CLint scaled [10] of 4.26 L/h/kg. For the same compound, the Kd [1] was 0.0033 µM, the CLint scaled [11] was 19.2 L/h/kg and the CLint scaled [12] was 20.7 L/h/kg. For the same compound, the CLint scaled [13] was 1.62 L/h/kg and the inhibition at 10 µM (CYP1A2) was 19.9%.

Work on `O=S1(=O)C=C(C2CC2)c2cc3ncnc(Nc4cc(O)ccc4F)c3cc21` yielded a Kd [1] of 0.014 µM.

For `CCOC1=C(C)S(=O)(=O)c2cc3c(Nc4ccc5scnc5c4)ncnc3cc21`, the Kd [1] was 0.024 µM.

In the case of `CCOC1=CS(=O)(=O)c2cc3c(Nc4ccc5scnc5c4)ncnc3cc21`, the Kd [14] is reported as > 30 µM, the half-life [2] is reported as 142 min and the inhibition at 10 µM (CYP3A4 [3]) is reported as -0.93%. It also gave an inhibition at 10 µM (CYP2C19) of 16.6%, an inhibition at 10 µM (CYP2C9) of 10.7% and a half-life [4] of 25.9 min. For the same compound, the CLint scaled [5] was 1.05 L/h/kg, the IC50 (THP-1) was 0.00199 µM and the Kd [15] was 0.043 µM. It also gave an inhibition at 10 µM (CYP3A4 [6]) of 0%, a half-life [7] of 38 min and a half-life [8] of 189 min. For the same compound, the inhibition at 10 µM (CYP2D6) was -23.2%, the IC50 [16] was > 10 µM and the half-life [9] was 62.7 min. It also gave a CLint scaled [10] of 3.2 L/h/kg, a Kd [1] of 0.0059 µM and a CLint scaled [11] of 8 L/h/kg. For the same compound, the CLint scaled [12] was 5.22 L/h/kg, the CLint scaled [13] was 0.551 L/h/kg and the inhibition at 10 µM (CYP1A2) was 18.1%.

`CC(C)(C)S(=O)(=O)c1cc2c(Nc3ccc4scnc4c3)ncnc2cc1OCCOP(=O)(O)O` gave an IC50 (THP-1) of 0.00134 µM and a Kd [1] of 0.00078 µM.

`Cc1ccc(O)cc1Nc1ncnc2cc3c(cc12)S(=O)(=O)C=C3C1CC1` showed a Kd [1] of 0.07 µM.

Work on `CC1=CS(=O)(=O)c2cc3c(Nc4ccc5scnc5c4)ncnc3cc21` yielded a Kd [1] of 0.014 µM.

`CC1=Cc2cc3nc(C)nc(Nc4ccc5scnc5c4)c3cc2S1(=O)=O` gave a Kd [1] of 0.685 µM.

Compound `CC1=Cc2cc3ncnc(Nc4ccc5scnc5c4)c3cc2S1(=O)=O` has a Kd [1] of 0.055 µM.

With `O=S1(=O)C=C(c2ccc(F)cc2)c2cc3ncnc(Nc4ccc5scnc5c4)c3cc21` the Kd [1] was 0.545 µM.

With `COC1=CS(=O)(=O)c2cc3c(Nc4ccc5scnc5c4)ncnc3cc21` the Kd [1] was 0.027 µM.

In the case of `O=S1(=O)C=C(C2CC2)c2cc3ncnc(Nc4n[nH]c5ccc(F)cc45)c3cc21`, the Kd [1] is reported as 0.01 µM.

`O=S1(=O)C=C(C2CC2)c2cc3ncnc(Nc4ccc5nn[nH]c5c4)c3cc21` gave a Kd [1] of 0.01 µM.

With `CC1=C(C)S(=O)(=O)c2cc3c(Nc4ccc5scnc5c4)ncnc3cc21` the half-life [2] was 59 min, the inhibition at 10 µM (CYP3A4 [3]) was 6.88% and the inhibition at 10 µM (CYP2C19) was 11.5%. For the same compound, the inhibition at 10 µM (CYP2C9) was -1.42%, the half-life [4] was 4.61 min and the CLint scaled [5] was 2.53 L/h/kg. The inhibition at 10 µM (CYP3A4 [6]) was -3.32%, the half-life [7] was 20.9 min and the half-life [8] was 53 min. It also gave an inhibition at 10 µM (CYP2D6) of -15.7%, a half-life [9] of 23.7 min and a CLint scaled [10] of 5.82 L/h/kg. For the same compound, the Kd [1] was 0.0082 µM, the CLint scaled [11] was 44.9 L/h/kg and the CLint scaled [12] was 13.8 L/h/kg. For the same compound, the CLint scaled [13] was 1.97 L/h/kg and the inhibition at 10 µM (CYP1A2) was 14.9%.

`O=S1(=O)C=C(c2ccccc2)c2cc3ncnc(Nc4ccc5scnc5c4)c3cc21` gave a Kd [1] of 0.109 µM.
